The text below walks through data of patent EP2914280B1, “SOMATOSTATIN-DOPAMINE CHIMERIC ANALOGS” (IPSEN PHARMA S.A.S., priority 2012, dated 2014).

For one experiment, the target named is T1, hSSTR1 (Homo sapiens, UniProt P30872).
T1 construct: expressed in transfected cells; host or cells: CHO-K1 (ATCC), pcDNA3.1, G418-selected clonal line; membranes
Nature of the experiment: Somatostatin receptor radioligand binding assay (hSSTR1).

Experiment [1] has as its target T2, hSSTR2 (Homo sapiens, UniProt P30874).
T2 construct: host or cells: 'Cells expressing hSSTR2'
Nature of the experiment: Somatostatin receptor radioligand binding assay (hSSTR2).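 Also: radioligand displacement on membranes of CHO-K1 cells stably transfected with human SSTR2, specific binding taken as total minus binding left with 1000 nM SRIF-14.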

The next experiment concerns the target T3, hSSTR5 (Homo sapiens, UniProt P35346).
T3 construct: expressed in transfected cells; host or cells: CHO-K1 (ATCC), pcDNA3.1, G418-selected clonal line; membranes
Nature of the experiment: Somatostatin receptor radioligand binding assay (hSSTR5). The settings on record: CHO-K1 cell membranes; 0.05 nM [125I-Tyr]-[DPhe-cyclo(Cys-Tyr-DTrp-Lys-Val-Cys)-Thr-NH2]; 60 minutes at 25°C; read-out: hSSTR5 Ki (nM) ± SEM.

Experiment [2] concerns the target T2, hSSTR2. As to the kind of experiment: Intracellular calcium mobilization assay (FLIPR Calcium 4), hSSTR2.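 Also: agonist activity measured in cells expressing hSSTR2, seeded in 384-well plates, loaded with Calcium 4 dye, read-out as rise in intracellular calcium.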 It counts as cell-based. On the technique in general: Calcium flux is commonly read through the fluorescence of an indicator in the cells.
Experiment [3] deals with T4, hDRD2 (Homo sapiens, UniProt P14416). Nature of the experiment: cell-based. Also noted: host or cells: 'Cells expressing hDRD2'. The settings on record: for Emax: read-out: hDRD2 %Emax ± SEM.
T4 sequence (P14416 whole entry): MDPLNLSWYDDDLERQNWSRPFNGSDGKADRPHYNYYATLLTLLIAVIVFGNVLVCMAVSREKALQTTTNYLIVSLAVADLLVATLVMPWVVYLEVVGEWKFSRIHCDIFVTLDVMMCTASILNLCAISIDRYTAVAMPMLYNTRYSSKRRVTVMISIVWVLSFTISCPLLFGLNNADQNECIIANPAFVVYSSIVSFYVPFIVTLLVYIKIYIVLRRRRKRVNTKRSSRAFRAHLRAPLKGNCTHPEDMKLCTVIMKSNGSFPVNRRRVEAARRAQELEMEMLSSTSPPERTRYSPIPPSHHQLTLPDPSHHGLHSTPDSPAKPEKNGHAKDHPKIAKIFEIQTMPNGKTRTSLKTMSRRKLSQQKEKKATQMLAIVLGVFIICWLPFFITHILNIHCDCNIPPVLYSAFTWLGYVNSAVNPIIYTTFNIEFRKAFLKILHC
The target of experiment [4] is T4, hDRD2. As to the kind of experiment: biochemical. Also noted: expressed in transfected cells; host or cells: CHO-K1, pcDNA3.1/GS, zeocin-selected clonal line; membranes. It counts as binding.
The mark [5] stands for this setting: CHO-K1 cell membranes, 0.05 nM [125I-Tyr11]-SRIF-14, 60 minutes at 25°C, read-out: hSSTR1 Ki (nM) ± SEM.
The mark [6] stands for this setting: CHO-K1 cell membranes, 0.05 nM [125I-Tyr]-seglitide, 60 minutes at 25°C, read-out: hSSTR2 Ki (nM) ± SEM.
The mark [7] stands for this setting: CHO-K1 cell membranes, […] [3H]-spiperone, 60 minutes at 25°C, read-out: hDRD2 Ki (nM) ± SEM.

Where two headings read alike, the source gives them in different places.
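For Emax in this document: agonist activity at human DRD2 in DRD2-expressing cells, read as intracellular calcium mobilization with a FLIPR Calcium 4 fluorescent dye.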

T2 sequence (P30874 whole entry): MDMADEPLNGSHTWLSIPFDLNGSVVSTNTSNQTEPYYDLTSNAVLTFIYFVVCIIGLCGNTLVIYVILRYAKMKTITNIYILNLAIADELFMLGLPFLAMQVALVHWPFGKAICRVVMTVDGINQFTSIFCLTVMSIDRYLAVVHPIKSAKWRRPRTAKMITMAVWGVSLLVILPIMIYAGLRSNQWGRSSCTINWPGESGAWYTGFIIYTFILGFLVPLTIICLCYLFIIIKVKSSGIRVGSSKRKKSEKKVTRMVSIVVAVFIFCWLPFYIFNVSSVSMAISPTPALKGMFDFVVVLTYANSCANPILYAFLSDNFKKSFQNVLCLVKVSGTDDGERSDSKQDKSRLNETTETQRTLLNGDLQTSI
T1 sequence (P30872 whole entry): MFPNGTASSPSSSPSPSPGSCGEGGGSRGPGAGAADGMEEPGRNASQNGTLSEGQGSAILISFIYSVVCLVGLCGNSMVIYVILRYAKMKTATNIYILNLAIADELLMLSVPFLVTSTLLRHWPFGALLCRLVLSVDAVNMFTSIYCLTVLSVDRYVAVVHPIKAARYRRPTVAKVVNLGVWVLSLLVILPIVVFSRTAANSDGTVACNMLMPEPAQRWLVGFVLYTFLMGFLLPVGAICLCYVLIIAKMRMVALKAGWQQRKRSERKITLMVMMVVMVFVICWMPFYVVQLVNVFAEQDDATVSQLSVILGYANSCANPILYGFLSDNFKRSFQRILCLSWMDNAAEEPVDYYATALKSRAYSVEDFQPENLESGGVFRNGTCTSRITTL
T3 sequence (P35346 whole entry): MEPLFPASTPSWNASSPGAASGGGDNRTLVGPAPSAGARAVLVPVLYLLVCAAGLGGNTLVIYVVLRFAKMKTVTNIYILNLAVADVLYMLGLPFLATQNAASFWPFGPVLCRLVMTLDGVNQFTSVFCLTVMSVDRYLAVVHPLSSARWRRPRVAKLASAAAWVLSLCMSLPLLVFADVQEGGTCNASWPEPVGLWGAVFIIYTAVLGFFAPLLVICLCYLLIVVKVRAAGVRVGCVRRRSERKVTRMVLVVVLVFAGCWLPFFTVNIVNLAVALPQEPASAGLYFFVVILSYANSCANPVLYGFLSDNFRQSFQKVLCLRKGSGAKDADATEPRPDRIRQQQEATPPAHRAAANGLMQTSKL
Description for hSSTR1: (§1) The affinities of a test compound for the human somatostatin receptors were determined by radioligand binding assays in CHO-K1 cells stably transfected with each of the human somatostatin receptor subtypes, hSSTR1-5. […] Clonal cell lines stably expressing each of the somatostatin receptors were obtained by transfection into CHO-K1 cells (ATCC) and subsequently selected with culture media containing 0.8 mg/mL of G418 (Life Technologies).
(§2) Membranes for in vitro receptor binding assays were obtained by the following procedures. […] The supernatant containing the plasma membranes was centrifuged at 100,000 x g for 30 minutes and the pellet was resuspended in buffer containing 20 mM glycine-glycine, 1 mM MgCl2, 250 mM sucrose, pH 7.2, for storage at -80°C.
(§3) For the SSTR1, 2 and 5 assays, membranes and various concentrations of test compounds were incubated in 96-well plates for 60 minutes at 25°C with 0.05 nM [^125I-Tyr^11]-SRIF-14 (for hSSTR1; PerkinElmer Life Science), 0.05 nM [^125I-Tyr]-seglitide (for hSSTR2; PerkinElmer Life Science) or 0.05 nM [^125I-Tyr]-[DPhe-cyclo(Cys-Tyr-DTrp-Lys-Val-Cys)-Thr-NH2] (for hSSTR5; PerkinElmer Life Science) in 50 mM HEPES, 0.2% BSA, 0.1 mM MgCl2, pH 7.5.
(§4) The incubations were terminated by rapid filtration through GF/C glass microfiber filter plates (pre-wet with 0.3% polyethyleneimine and 0.1 % BSA) using a 96-well cell harvester (Brandel). Plates were washed six times with 1 mL/well aliquots of ice-cold buffer containing 50 mM Tris buffer, pH 7.7. Specific binding was defined as the total radioligand bound minus the bound in the presence of 1000 nM SRIF-14.
Description for hSSTR5: as §1, §2, §3, §4

Consider `C[C@@H](O)[C@@H]1NC(=O)[C@H](CCCCN)NC(=O)[C@@H](Cc2c[nH]c3ccccc23)NC(=O)[C@H](Cc2ccccc2)NC(=O)[C@H](Cc2ccccc2)NC(=O)[C@H](CCCNC(=N)N)NC(=O)[C@H](NCCS(=O)(=O)C[C@@H]2C[C@@H]3c4cccc5[nH]cc(c45)C[C@H]3N(C)C2)CCCCNC(=O)[C@H](Cc2ccc(F)cc2)NC1=O` [Compound 10, Dop1(SO2)-psi(CH2NH)-cyclo(DLys-Arg-Phe-Phe-DTrp-Lys-Thr-4FPhe)], for which the inhibitory constant (Ki) – broadly, the dissociation constant of the complex between target and ligand, obtained from inhibition or displacement – is 6.6 nM at hSSTR1, 0.17 ± 0.05 nM on hSSTR2 [1], 0.16 ± 0.1 nM on hSSTR5 and 56.4 ± 11.2 nM at hDRD2 [4]. Also, the EC50 (commonly the midpoint of the concentration-response curve) on hSSTR2 [2] is 19.4 ± 2 nM; at hDRD2 [3], 24 ± 4.5 nM. In addition, on hDRD2 [3], the Emax (commonly the maximal effect, on the per cent scale that the assay sets) amounted to 92.8 ± 4%.

Turning to `C[C@@H](O)[C@@H]1NC(=O)[C@H](CCCCN)NC(=O)[C@@H](Cc2c[nH]c3ccccc23)NC(=O)[C@H](Cc2ccncc2)NC(=O)[C@H](Cc2ccccc2)NC(=O)[C@H](CCCNC(=N)N)NC(=O)[C@H](NCC[S@+]([O-])C[C@@H]2C[C@@H]3c4cccc5[nH]cc(c45)C[C@H]3N(C)C2)CCCCNC(=O)[C@H](Cc2ccc(O)cc2)NC1=O` [Compound 11, Dop1[(R)SO]-psi(CH2NH)-cyclo(DLys-Arg-Phe-4Pa1-DTrp-Lys-Thr-Tyr)], the Ki worked out at 160 ± 22.5 nM at hSSTR1, 0.05 nM on hSSTR2 [1], 0.09 nM on hSSTR5 and 79.7 ± 21.4 nM on hDRD2 [4]. The figures for the concentration giving a half-maximal response (EC50) on hSSTR2 [2] and on hDRD2 [3] were 2.4 ± 0.4 nM and 6.4 ± 0.9 nM, respectively. The Emax on hDRD2 [3] turned out to be 106 ± 3.5%.

For the compound `C[C@@H](O)[C@@H]1NC(=O)[C@H](CCCCN)NC(=O)[C@@H](Cc2c[nH]c3ccccc23)NC(=O)[C@H](Cc2ccncc2)NC(=O)[C@H](Cc2ccccc2)NC(=O)[C@H](CCCNC(=N)N)NC(=O)[C@H](NCC[S@@+]([O-])C[C@@H]2C[C@@H]3c4cccc5[nH]cc(c45)C[C@H]3N(C)C2)CCCCNC(=O)[C@H](Cc2ccc(O)cc2)NC1=O` [Compound 12, Dop1[(S)SO]-psi(CH2NH)-cyclo(DLys-Arg-Phe-4Pal-DTrp-Lys-Thr-Tyr)], the Ki on hSSTR1 is 98.9 ± 2.3 nM; at hSSTR2 [1], 0.06 ± 0.01 nM; on hSSTR5, 0.74 ± 0.4 nM; on hDRD2 [4], 255 ± 224 nM. The values for the EC50 at hSSTR2 [2] and at hDRD2 [3] were 4.1 ± 1.4 nM and 76.3 ± 28.2 nM, respectively. Besides, the Emax on hDRD2 [3] was determined as 99.8 ± 6%.

As to `C[C@@H](O)[C@@H]1NC(=O)[C@H](CCCCN)NC(=O)[C@@H](Cc2c[nH]c3ccccc23)NC(=O)[C@H](Cc2ccncc2)NC(=O)[C@H](Cc2ccccc2)NC(=O)[C@H](CCCNC(=N)N)NC(=O)[C@H](NCCS(=O)(=O)C[C@@H]2C[C@@H]3c4cccc5[nH]cc(c45)C[C@H]3N(C)C2)CCCCNC(=O)[C@H](Cc2ccc(O)cc2)NC1=O` [Compound 20, Dop1(SO2)-psi(CH2NH)-cyclo(DLys-Arg-Phe-4Pal-DTrp-Lys-Thr-Tyr)], the Ki on hSSTR1 (setting [5]) was determined as 689 nM; on hSSTR2 [1] (setting [6]), 0.02 ± 0.01 nM; on hSSTR5, 0.33 nM; at hDRD2 [4] (setting [7]) it was 115 ± 41.3 nM. Also, the Emax on hDRD2 [3] was 101.5 ± 0.6%.

With `C[C@@H](O)[C@@H]1NC(=O)[C@H](CCCCN)NC(=O)[C@@H](Cc2c[nH]c3ccccc23)NC(=O)[C@H](Cc2ccccc2)NC(=O)[C@H](Cc2ccccc2)NC(=O)[C@H](CCCNC(=N)N)NC(=O)[C@H](NC[C@H](CCCCNC(=O)CSC[C@@H]2C[C@@H]3c4cccc5[nH]cc(c45)C[C@H]3N(C)C2)NC(=O)CSC[C@@H]2C[C@@H]3c4cccc5[nH]cc(c45)C[C@H]3N(C)C2)CCCCNC(=O)[C@H](Cc2ccc(F)cc2)NC1=O` [Compound 47, Dop1-Lys(Dop1)-psi(CH2NH)-cyclo(DLys-Arg-Phe-Phe-DTrp-Lys-Thr-4FPhe)], the Ki on hSSTR1 (setting [5]) worked out at 29 nM; at hSSTR2 [1] (setting [6]), 0.58 ± 0.27 nM; on hDRD2 [4] (setting [7]), 84.2 ± 7.5 nM. For the same compound, the “improvement in %Emax over Reference Compound C” value at hSSTR2 [2] (receptor not named) is given as “statistically significant improvement in %Emax”. In addition, the maximal response (Emax) at hDRD2 [3] was determined as 92.5 ± 0.8%.
